Laboratory results taken from patent publication US5326788A, “Biological fluid purification system” (priority 1992, dated 1994).

Tests used:
[1] = Toxicity of hypericin administered to mice; type: in vivo
Procedure: In general, up to 100 mg and preferably between 1 mg and about 10 mg of the antiviral compounds may be employed to completely eliminate the infectivity properties of human retroviruses such as HIV in one unit of whole blood. Intravenous transfusion or administration of blood containing this level of hypericin for example should pose no serious toxicity or tolerance threat to human recipients of such transfused blood. […] This correlates with a dose of approximately 25 mg i.v. in man, or twenty times the dose that would be received from a transfusion of 1 unit of whole blood containing 2.5 micrograms/ml hypericin. In addition, i.e. administration of 1.2 mg of hypericin in phosphate buffered saline (PBS) containing 10% ethanol to a mouse was not lethal. (Naturally, it is preferred to use the minimum amount of the antiviral compounds that is effective to terminate the infectivity of the target virus in a given biological fluid. The minimum effective amount required for abolishing infectivity of a particular viral species suspected to be present in a biological fluid can be easily determined through the exercise of routine experimentation.)

HIV [2] = assay: Infectivity (ability to replicate in culture) of HIV derived from H9 cell cultures; type: cell-based, Human Immunodeficiency Virus (HIV)
Procedure: FIG. 2 is a graph showing the effect of hypericin and pseudohypericin on the infectivity of HIV cultured from an AIDS patient.
(§1) In FIG. 1, open squares represent hypericin-treated and pluses represent pseudohypericin treated HIV. […] Inactivation of the reverse transcriptase activity of the virions was not a result of a direct inhibition of reverse transcriptase activity per se, as incubation of either compound directly with purified reverse transcriptase from either avian myeloblastosis virus or murine leukemia virus had no effect on enzyme activity. Furthermore, aliquots of HIV derived from these H9 cell cultures lost the ability to replicate in culture when exposed to as little as 0.77 micrograms/ml of hypericin.

HIV-1 = assay: Syncytia assay, H9 cells infected with IIIb isolate of HIV co-cultured with Supt-1 cells; type: cell-based; conditions: 24 hours
Procedure: (§2) In order to assess the effects of Hy and Ps on the ability of HIV to form syncytia, the following experiments were performed. For the analysis of HIV-1, an entry syncytia assay was performed by co-culturing H9 cells (described in Popovic, M. et al. Science 224: 497-500, 1984) infected with the IIIb isolate of HIV with uninfected Supt-1 cells (Walker, B. D. et al. Proc. Nat. Acad. Sci. (USA) 84: 8120-8124, 1987) as the target cell. HIV-2 was tested using HUT78 cells (obtained from the National Institute of Health by reference to Depository Catalog, Reagent Program, Bethesda, Md.) infected with the ROD-2 isolate of HIV-2 co-cultured with uninfected H9 target cells. The infected cells were plated in 96 well plates (10^4 cells per well in RPM1 1640 medium with 10% fetal calf serum) and incubated with or without dilutions of Ps or Hy for 30 minutes at 37° C. 1×10^5 target cells were then added per well and the number of syncytia were quantitatively and qualitatively determined after 24 hours.

[3] = biological target: purified reverse transcriptase from murine leukemia virus (Moloney murine leukemia virus isolate Shinnick, UniProt P03355); assay: Direct incubation with purified reverse transcriptase; type: biochemical
Procedure: as §1

[4] = tested on: purified reverse transcriptase from avian myeloblastosis virus; assay: as above; type: biochemical
Procedure: as §1

HIV [5] = assay: Incubation time of free HIV virus with hypericin needed to inhibit infectivity; type: cell-based, Human Immunodeficiency Virus (HIV)
HIV [6] = assay: Inactivation of HIV from blood of sero-positive patient, reverse transcriptase activity after culture with H9 cells; type: cell-based, Human Immunodeficiency Virus (HIV)
Procedure: In order to show the effectiveness of the compounds of the present invention in the inactivation of HIV, blood was obtained from an HIV sero-positive patient and treated with hypericin and pseudohypericin at various concentrations for 1 hour at 37° C. and incubated with uninfected H9 cells in culture. Thereafter, reverse transcriptase enzymatic activity was determined as disclosed in U.S. patent application Ser. Nos. 084,008 and 172,064 filed Aug. 10, 1987 and Mar. 23, 1988, respectively.
as §1

Radiation Leukemia Virus = assay: Inhibition of virus budding from infected AQR cells, reverse transcriptase assay; type: cell-based, Radiation Leukemia Virus in AQR (murine leukemia) cells; conditions: 1 hour incubation, supernatant after 24 hours; read-out: concentration completely inhibiting virus budding
Procedure: AQR (murine leukemia) cells producing Radiation Leukemia Virus (prepared as described in Meruelo, D., J. Exp. Med. 149: 898-909, 1979; and Bach, R. G. et al., J. Exp. Med. 160: 270-285, 1984) were incubated for 1 hour with various concentrations of synthetic hypericin (micrograms/ml shown in FIG. 3). The cells were then washed four times with phosphate buffer saline and incubated in fresh culture medium for 24 or 48 hours. Supernatants were then collected, pelleted (at 1000×g) for 15 minutes to remove whole cells and then repelleted at 100,000×g for 1 hour to collect virus particles. The second pellet was used for a reverse transcriptase assay, conducted as described in U.S. application Ser. No. 084,008 (Aug. 10, 1987) and 172,064 (Mar. 23, 1988).
The results of the reverse transcriptase assay are plotted in FIG. 3. […] Thus, the minimum incubation period that would destroy the ability of HIV-infected cells to participate in propagation of the HIV infection is likely to be much smaller than the 24 hours employed as the minimum waiting period in this assay.

HIV-1 env = assay: Syncytia assay, cell line expressing only envelope proteins of HIV-1 IIIb with Supt-1 cells; type: cell-based; conditions: for syncytia score (number 0-4, size S/M/L): 24 hours
Procedure: as §2
Also tested in a syncytia assay was a constructed cell line expressing only the envelope proteins of HIV-1 type IIIb isolate (Walker, B. D. et al., supra). These cells, designated HIV-1 env in Table 6, were treated with the indicated concentrations of Ps or Hy and incubated with uninfected Supt-1 target cells as above.

For `Cc1cc(O)c2c(=O)c3c(O)cc(O)c4c5c(O)cc(O)c6c(=O)c7c(O)cc(C)c8c1c2c(c34)c(c78)c65` [hypericin], the “corresponding dose in man” value ([1]; i.v., extrapolated from 100 micrograms per mouse) was “approximately 25 mg”, the toxic side effects ([1]; mice, intravenous, 100 micrograms per mouse) was “not exhibited any toxic side effects” and the lethality ([1]; mouse, 1.2 mg in PBS containing 10% ethanol) was “not lethal”. The “concentration abolishing infectivity of HIV (loss of ability to replicate in culture)” value (HIV [2]) was 0.77 micrograms/ml, the minimal effective concentration (HIV [2]; Human immunodeficiency virus 1, read-out: concentration abolishing infectivity of HIV (loss of ability to replicate in culture)) was 0.77 µg/mL and the “syncytia score (number 0-4, size S/M/L)” value (HIV-1; 7 nanograms) was 4 L. For the same molecule, the “syncytia score (number 0-4, size S/M/L)” value (HIV-1; 14 nanograms) was 4 L, the “syncytia score (number 0-4, size S/M/L)” value (HIV-1; 28 nanograms) was 3 L and the “syncytia score (number 0-4, size S/M/L)” value (HIV-1; 56 nanograms) was 0. For the same molecule, the “syncytia score (number 0-4, size S/M/L)” value (HIV-1; 112 nanograms) was 0, the “syncytia score (number 0-4, size S/M/L)” value (HIV-1; 225 nanograms) was 0 and the “syncytia score (number 0-4, size S/M/L)” value (HIV-1; 450 nanograms) was 0. For the same molecule, the “syncytia score (number 0-4, size S/M/L)” value (HIV-1; 900 nanograms) was 0, the “syncytia score (number 0-4, size S/M/L)” value (HIV-1; 1800 nanograms) was 0 and the “effect on enzyme activity of purified reverse transcriptase” value [3] was “no effect”. For the same molecule, the “effect on enzyme activity of purified reverse transcriptase” value [4] was “no effect”, the “inhibition of virus infectivity” value (HIV [5]; 10 and 5 minutes incubation) was “complete” and the “inhibition of virus infectivity” value (HIV [5]; only the time to add compound and centrifuge) was “significant inhibition”. For the same molecule, the “concentration giving complete inactivation of HIV (no reverse transcriptase detected)” value (HIV [6]; 1 hour at 37° C., H9 cells) was 2.5 micrograms/ml, the IC100 (HIV [6]; Human immunodeficiency virus 1, H9, 1 h, read-out: concentration giving complete inactivation of HIV (no reverse transcriptase detected), 1 hour at 37° C., H9 cells) was > 2.5 µg/mL and the IC100 (Radiation Leukemia Virus) was 10 µg/mL. The “syncytia score (number 0-4, size S/M/L)” value (HIV-1 env; 7 nanograms) was 4 L, the “syncytia score (number 0-4, size S/M/L)” value (HIV-1 env; 14 nanograms) was 4 L and the “syncytia score (number 0-4, size S/M/L)” value (HIV-1 env; 28 nanograms) was 4 L. For the same molecule, the “syncytia score (number 0-4, size S/M/L)” value (HIV-1 env; 56 nanograms) was 4 L, the “syncytia score (number 0-4, size S/M/L)” value (HIV-1 env; 112 nanograms) was 3 M and the “syncytia score (number 0-4, size S/M/L)” value (HIV-1 env; 225 nanograms) was 0. The “syncytia score (number 0-4, size S/M/L)” value (HIV-1 env; 450 nanograms) was 0, the “syncytia score (number 0-4, size S/M/L)” value (HIV-1 env; 900 nanograms) was 0 and the “syncytia score (number 0-4, size S/M/L)” value (HIV-1 env; 1800 nanograms) was 0. The “inhibition of the viral entry process (comparison)” value (HIV-1 env; HIV-1 env cells and live virus assays) was “more effective than pseudohypericin”.
